{
  "source": "patent US20080182822A1",
  "about": "“Liquid Pharmaceutical Compositions Comprising a Bisphosphonate Compound” (Besins Healthcare SA, priority 2006, published 2008)",
  "key": {"ovariectomized rats [1]": {"test_system": "ovariectomized rats", "details": "OVX rats", "description": "(§1) Ovariectomized rats are a recognised model for bone loss study, as the surgical operation causes an estrogen deficiency which results in rapid bone loss. See Guideline on the evaluation of medicinal products in the treatment of primary osteoporosis, CPMP/EWP/552/95 available for download from the European Medicine Agency at: http://www.emea.europa.eu/.\n(§2) 13-week old rats (Sprague-Dawley, virgin female), 8 per group, were sham operated (group 1-control) or ovariectomized (OVX) (groups 2 to 7) on the day before the first day of treatment.\nUrinary deoxypyridinoline (D-pyr) and creatinine (Creat) were determined at baseline, week 4 and week 8. The ratio of D-Pyr to Creat is a recognised marker of bone resorption. See, e.g., Christenson RH “Biochemical markers of bone metabolism: an overview” Clin Biochem 1997, 30(8), 573-593."}, "[2]": {"details": "rat"}, "ovariectomized rats [3]": {"test_system": "ovariectomized rats", "details": "OVX rats", "description": "as §1, §2\nFemur and L2-L5 lumbar vertebrae block Bone Mineral Density (BMD) were calculated from in vivo Dual-energy X-ray Absorptiometry (DXA) measurement at the same time points with an Hologic apparatus. BMD was also measured ex vivo on dissected femur and L4 vertebrae at the end of the treatment period.", "remark": "listed apart in the source"}, "[4]": {"details": "rat, published data, Lin et al.; cited from earlier work"}, "[5]": {"assay": "Bisphosphonate concentration at about 90% saturation in the vehicle", "type": "physicochemical", "experimental": "Compositions in various vehicles (water/ethanol or buffer/ethanol, with or without additional ingredients, water (pure aqueous)) were prepared, using each bisphosphonate at a concentration of about 90% the saturation value. For example, “90/10” denotes a 90/10 (v/v) mixture of water/ethanol; “90/10 pH6” denotes a 90/10 (v/v) mixture of phosphate buffer pH6/ethanol.\nBisphosphonate concentrations are at about 90% saturation.\nRisedronate sodium is generally administered using a dose of 35 mg of anhydrous monosodium risedronate, once a week. Advantageously, for a topical dose of 35 mg, this corresponds to 1.5 g of a solution according to one embodiment (risedronate at 90% saturation in phosphate-buffered hydroalcoholic solution 90/10 […], i.e. anhydrous monosodium risedronate at 22.4 mg/g). The same topical dose of 35 mg, corresponds to 0.8 g of another embodiment (risedronate at 90% saturation in pure water, i.e. anhydrous monosodium risedronate at 45.3 mg/g). […] The in vitro condition of application—i.e. 10 μl/1.77 cm^2—mimics an in vivo situation wherein the formulation is applied as a thin layer of 1-2 mg of formulation/cm^2."}, "[6]": {"assay": "In vitro dermal absorption, static diffusion cell (Franz cell)"}, "[7]": {"details": "group 4: 4.46 mg/kg daily topical (reduced from 15.6 mg/kg/d after 2 weeks)"}, "[8]": {"details": "group 5: 15.6 mg/kg weekly topical"}, "[9]": {"details": "group 7: 10.85 mg/kg twice weekly topical (reduced from 15.6 mg/kg after 2 weeks)"}, "[10]": {"details": "phosphate-buffered hydroalcoholic solution 90/10"}, "[11]": {"details": "buffered solution, compared to 100% phosphate buffer solution, FIG. 10 / FIG. 11"}},
  "note": "Read-outs that look alike come from different tables or passages of the source.",
  "data": [
    {"molecule": "NCCCC(O)(P(=O)(O)O)P(=O)(O)O", "note": "[alendronate, 4-amino-1-hydroxybutylidene-1,1-bisphosphonic acid]", "values": [
      {"measurement": "D-pyr/Creat, Week 4", "setting": "ovariectomized rats [1]; group 3: 2 μg/kg daily sc inj", "value": "118 ± 64"},
      {"measurement": "D-pyr/Creat, Week 8", "setting": "ovariectomized rats [1]; group 3: 2 μg/kg daily sc inj", "value": "72 ± 13"},
      {"measurement": "D-pyr/Creat, Week 4", "setting": "ovariectomized rats [1]; [7]", "value": "58 ± 13"},
      {"measurement": "D-pyr/Creat, Week 8", "setting": "ovariectomized rats [1]; [7]", "value": "42 ± 15"},
      {"measurement": "D-pyr/Creat, Week 4", "setting": "ovariectomized rats [1]; [8]", "value": "138 ± 60"},
      {"measurement": "D-pyr/Creat, Week 8", "setting": "ovariectomized rats [1]; [8]", "value": "67 ± 26"},
      {"measurement": "D-pyr/Creat, Week 4", "setting": "ovariectomized rats [1]; [9]", "value": "88 ± 52"},
      {"measurement": "D-pyr/Creat, Week 8", "setting": "ovariectomized rats [1]; [9]", "value": "57 ± 24"},
      {"measurement": "bone recovery after dermal administration", "setting": "[2]; data from Example 4", "value": 0.2, "unit": "%"},
      {"measurement": "delivered dose contained in gauze wrap removed at 24 h", "setting": "[2]; dermal administration", "value": "about 10%"},
      {"measurement": "delivered dose contained in washing medium and swabs", "setting": "[2]; dermal administration, 24 h", "value": "about 46%"},
      {"measurement": "dermally delivered alendronate not absorbed", "setting": "[2]; gauze wrap + washing medium and swabs at 24 h", "value": 56, "unit": "%"},
      {"measurement": "BMD results compared with subcutaneous injection (group 3) or control (group 1)", "setting": "ovariectomized rats [3]; topical groups 4-7, 8 weeks", "value": "similar"},
      {"measurement": "BMD in the distal metaphysis (part of femur) compared with the subcutaneous injection group (group 3)", "setting": "ovariectomized rats [3]; topically treated groups 4 and 7", "value": "statistically higher"},
      {"measurement": "bone recovery after oral administration", "setting": "[4]", "value": 0.9, "unit": "%"}
    ]},
    {"molecule": "O=P([O-])(O)C(O)(Cc1cccnc1)P(=O)(O)O.[Na+]", "note": "[Sodium Risedronate]", "values": [
      {"measurement": "concentration at 90% saturation", "setting": "[5]; [10]", "value": 22.4, "unit": "mg/g"},
      {"measurement": "concentration at 90% saturation", "setting": "[5]; pure water", "value": 45.3, "unit": "mg/g"}
    ]},
    {"molecule": "O=P(O)(O)C(O)(Cc1cccnc1)P(=O)(O)O", "note": "[risedronate, 1-hydroxy-2-(3-pyridyl)ethylidene-1,1-bisphosphonic acid]", "values": [
      {"measurement": "effect of glycerine on the amount recovered in the receptor fluid and the dermis", "setting": "[6]; FIG. 12 / FIG. 13", "value": "does not significantly increase"},
      {"measurement": "effect of propylene glycol (PG) on the amount recovered", "setting": "[6]; [11]", "value": "does not significantly affect"},
      {"measurement": "effect of urea on the amount recovered in the receptor fluid and the skin/dermis", "setting": "[6]; [11]", "value": "increases"},
      {"measurement": "effect of menthol on the amount recovered in the receptor fluid and dermis", "setting": "[6]; menthol at 90% of saturating concentration in 90/10 phosphate buffer/ethanol, compared to pure phosphate buffer solution, FIG. 6 / FIG. 7", "value": "does not increase"},
      {"measurement": "amount recovered in the receptor fluid and the dermis with oleic acid, compared to the 100% phosphate buffer solution", "setting": "[6]; oleic acid at 90% of maximum solubility in 90/10 phosphate buffer/ethanol with Tween 80 at 4.5%, FIG. 12 / FIG. 13", "value": "lower"},
      {"measurement": "effect of urea on the amount recovered in the receptor fluid and the skin", "setting": "[6]; urea incorporated in phosphate buffer solution, FIG. 8 / FIG. 9", "value": "neutral effect"},
      {"measurement": "recovery in the receptor fluid and the dermis at 24 hrs (crossing of the skin)", "setting": "[6]; water/alcohol compositions, FIG. 1 / FIG. 2", "value": "does cross the skin"},
      {"measurement": "effect of the increase in alcohol content on absorption, as percentage of the dose applied", "setting": "[6]; water/alcohol ratios, FIG. 1 / FIG. 2", "value": "slightly increased"}
    ]},
    {"molecule": "NCCCC(O)(P(=O)(O)O)P(=O)(O)O", "note": "[Sodium Alendronate]", "values": [
      {"measurement": "concentration at 90% saturation", "setting": "[5]; [10]", "value": 10.4, "unit": "mg/g"},
      {"measurement": "concentration at 90% saturation", "setting": "[5]; pure water", "value": 28.09, "unit": "mg/g"}
    ]}
  ]
}
